# Experiments:
# Type in all cases: cell-based
# [1] = test system: U-118 metastatic astrocytoma cell line; assay: Proliferation of U-118 cancer cells, Promega cell titer assay
# Procedure: Assays were performed to determine the effect of Cpd. 5 on proliferation of an additional cancer cell line. This cell line was the U-118 metastatic astrocytoma cell line. It was obtained from ATCC.
# To perform the assays, a 50 mM stock solution of Cpd. 5 was prepared in DMSO and frozen at −80° C. […] Controls containing equivalent amounts of DMSO to the 300 μM solution were mixed for comparative purposes. 100 μl of the resulting solutions were then added to 96 well culture plates in triplicate and placed in a 37° C. incubator with 5% CO2 to warm.
# (§1) Cells were removed from passage flasks using trypsin and ethylenediaminetetracetic acid (EDTA) and counted using trypan blue to establish cell counts/ml and viability. For all experiments, viability of cells was greater than 95%. Solutions of 4,000 cells/100 μl were prepared in the medium from above, and 100 μl of the solutions were added to each well of the plates. The plates were placed back in the incubator and incubated with the compounds for 96 hours.
# (§2) Following incubation, cell proliferation was assayed by adding 20 μl Promega cell titer aqueous one reagent to each well. Promega cell titer reagent is a solution containing a tetrazolium dye that is reduced by living cells to a formazan dye, and this reduction is proportional to the number of living cells present in the well. The plates were incubated at 37° C. for an additional 4 hours to allow the colorimetric assay to develop, and the OD of each well was determined in a microplate reader using a 530 nm filter. The OD of wells containing cell titer reagent in culture medium with no cells was subtracted from the OD of all experimental readings.
# The % decrease of the total cell titer signal was determined using the following formula. ((Diluent OD−Experimental OD)/Diluent OD))×100. Data are presented in Table 5 as mean % decrease of cell titer signal of three separate experiments, plus or minus standard deviation. In the mean % decrease column, a positive number means a decrease in cell titer signal, while a negative number means an increase in cell titer signal. The p values were calculated versus diluent controls.
# The above experiment was repeated using the U-118 cells at 3000 cells/well.
# [2] = test system: AU565 breast cancer cell line; assay: Proliferation of AU565 cancer cells, Promega cell titer assay; conditions: AU565, 20 μM, 96 hours; negative number = increase
# Procedure: (§3) Assays were performed to determine the effect of Cpd. 5 (synthesis described in Example 1) on proliferation of two cancer cell lines. These two cell lines were STTG grade 4 astrocytoma cell line and AU565 breast cancer cell line. Both cell lines were obtained from American Type Culture Collection, Rockville, Md. (ATCC).
# (§4) To perform the assays, a 50 mM stock solution of Cpd. 5 was prepared in DMSO and frozen at −80° C. Aliquots of the stock solution were removed and 100 μM dilutions were made in Iscove's modified Dulbecco's medium (IMDM; obtained from ATCC) supplemented with 10% fetal bovine serum (FBS) and penicillin/streptomycin solution. Controls containing equivalent amounts of DMSO to the 100 μM solution were mixed for comparative purposes. 100 μl of the resulting solutions were then added to 96 well culture plates in triplicate and placed in a 37° C. incubator with 5% CO2 to warm.
# as §1, with “At this point, cells” for “Cells”, “trypsin” for “trypsin and ethylenediaminetetracetic acid (EDTA)”, “above” for “above,”
# as §2, with “Promega cell titer reagent is a solution containing a tetrazolium dye that is reduced by living cells to a formazan dye, and this reduction is proportional to the number of living cells present in the well.” left out, “4-18” for “4”
# (§5) The % decrease of the total cell titer signal was determined using the following formula. […] The p values were calculated versus diluent controls.
# [3] = test system: STTG grade 4 astrocytoma cell line; assay: Proliferation of STTG cancer cells, Promega cell titer assay; conditions: 20 μM, 96 hours, negative number = increase
# Procedure: as §3, §4
# as §1, with “At this point, cells” for “Cells”, “trypsin” for “trypsin and ethylenediaminetetracetic acid (EDTA)”, “above” for “above,”
# as §2, with “Promega cell titer reagent is a solution containing a tetrazolium dye that is reduced by living cells to a formazan dye, and this reduction is proportional to the number of living cells present in the well.” left out, “4-18” for “4”
# as §5
smiles,measurement,setting,value
"O=c1cc(N2CCNCC2)oc2c(-c3ccccc3)cccc12 [LY303511, reference compound]",MEAN % DECREASE of cell titer signal,"[1]; U-118, 3000 cells/well, 40 μM final",0.41%
same,MEAN % DECREASE of cell titer signal,"[1]; U-118, 4,000 cells/well, 20 μM final, 96 hours",−25.93%
same,MEAN % DECREASE of cell titer signal,[2],−2.34%
same,MEAN % DECREASE of cell titer signal,[3],−4.74%

# From patent publication US8871772B2, “Therapeutic methods and compounds” (Ampio Pharmaceuticals, Inc., priority 2008, dated 2014)
